ChEMBL document CHEMBL4732091, “Design, synthesis and biological evaluation of novel thiosemicarbazone-indole derivatives targeting prostate cancer cells” (Eur J Med Chem, 2021)
Active and inactive are the calls of the source. No cut-off for these calls is given here.

How the values were obtained:
[1] = system: DU-145; experiment: Induction of apoptosis in human DU-145 cells assessed as late apoptotic cells at 2 uM measured after 72 hrs by Annexin V-FITC/propidium iodide staining based flow cytometry method (reference value: 1.77 %); format: functional
[2] = system: PC-3; experiment: Induction of apoptosis in human PC-3 cells assessed as formation of apoptotic bodies at 25 to 100 nM measured after 72 hrs by Hoechst staining based fluorescence microscope method; format: functional, cell-based; settings: dose 25-100 nM
[3] = system: DU-145; experiment: Induction of apoptosis in human DU-145 cells assessed as cell rounding at 0.5 to 2 uM measured after 72 hrs by Hoechst staining based fluorescence method; format: functional; settings: dose 0.5-2 µM
[4] = system: PC-3; experiment: Induction of ROS generation in human PC-3 cells assessed as intracellular ROS level at 250 nM measured after 48 hrs by DCFH-DA staining based flowcytometry method (reference value: 55.2 %); format: functional
[5] = system: DU-145; experiment: Induction of apoptosis in human DU-145 cells assessed as necrotic cells at 0.5 uM measured after 72 hrs by Annexin V-FITC/propidium iodide staining based flow cytometry method (reference value: 1.13 %); format: functional
[6] = Cytotoxicity against human WPMY-1 cell line cells assessed as inhibition of cell proliferation measured after 72 hrs by MTT assay; format: cell-based; settings: WPMY-1, 72 h
[7] = system: DU-145; experiment: Induction of apoptosis in human DU-145 cells assessed as increase in Bax expression at 0.5 to 2 uM measured by Western blot assay; format: functional, cell-based; settings: dose 0.5-2 µM
[8] = system: PC-3; experiment: Induction of ROS generation in human PC-3 cells assessed as increase in intracellular ROS level at 250 nM pretreated with NAC followed by compound treatment measured after 48 hrs by DCFH-DA staining based flowcytometry method; format: functional, cell-based
[9] = system: PC-3; experiment: Induction of apoptosis in human PC-3 cells assessed as necrotic cells at 100 nM measured after 72 hrs by Annexin V-FITC/propidium iodide staining based flow cytometry method (reference value: 1.2 %); format: functional
[10] = Toxicity in C57BL/6 mouse assessed as effect on liver at 2 mg/kg, IG measured after 2 weeks by hematoxylin and eosin staining based imaging analysis; format: organism-based; settings: in vivo, po, 336 h
[11] = system: PC-3; experiment: Activation of MAPK signaling in human PC-3 cells assessed as increase in phosphorylated ERK 1/2 (Thr 202/Tyr 204) at 125 to 500 nM measured by Western blot assay; format: cell-based; settings: filed as activator, dose 125-500 nM
[12] = system: PC-3; experiment: Activation of MAPK signaling in human PC-3 cells assessed as increase in phosphorylated p38 (Thr 180/Tyr 182) at 125 to 500 nM measured by Western blot assay; format: cell-based; settings: filed as activator, dose 125-500 nM
[13] = system: DU-145; experiment: Induction of apoptosis in human DU-145 cells assessed as increased cleaved caspase 9/3 at 0.5 to 2 uM measured by Western blot assay; format: functional, cell-based; settings: dose 0.5-2 µM
[14] = system: PC-3; experiment: Induction of apoptosis in human PC-3 cells assessed as late apoptotic cells at 50 nM measured after 72 hrs by Annexin V-FITC/propidium iodide staining based flow cytometry method (reference value: 1.01 %); format: functional
[15] = system: DU-145; experiment: Activation of MAPK signaling in human DU-145 cells assessed as increase in phosphorylated ERK 1/2 (Thr 202/Tyr 204) at 125 to 500 nM measured by Western blot assay; format: cell-based; settings: filed as activator, dose 125-500 nM
[16] = system: PC-3; experiment: Induction of apoptosis in human PC-3 cells assessed as early apoptotic cells at 100 nM measured after 72 hrs by Annexin V-FITC/propidium iodide staining based flow cytometry method (reference value: 0.452 %); format: functional
[17] = Toxicity in BALB/c-NU mouse assessed as changes in body weight at 12.5 to 25 mg/kg, IG qd for 21 days measured every 2 days; format: organism-based; settings: in vivo, po, 504 h, dose 12.5-25 mg/kg, time 21 day
[18] = system: DU-145; experiment: Induction of apoptosis in human DU-145 cells assessed as late apoptotic cells at 1 uM measured after 72 hrs by Annexin V-FITC/propidium iodide staining based flow cytometry method (reference value: 1.77 %); format: functional
[19] = system: PC-3; experiment: Induction of ROS generation in human PC-3 cells assessed as intracellular ROS level at 500 nM measured after 48 hrs by DCFH-DA staining based flowcytometry method (reference value: 55.2 %); format: functional
[20] = system: DU-145; experiment: Induction of ROS generation in human DU-145 cells assessed as intracellular ROS level at 3 uM pretreated with NAC followed by compound treatment measured after 48 hrs by DCFH-DA staining based flowcytometry method (reference value: 75.1 %); format: functional
[21] = system: DU-145; experiment: Induction of apoptosis in human DU-145 cells assessed as increase in PARP at 0.5 to 2 uM measured by Western blot assay; format: functional, cell-based; settings: dose 0.5-2 µM
[22] = system: DU-145; experiment: Induction of apoptosis in human DU-145 cells assessed as early apoptotic cells at 2 uM measured after 72 hrs by Annexin V-FITC/propidium iodide staining based flow cytometry method (reference value: 0.835 %); format: functional
[23] = system: PC-3; experiment: Cell cycle arrest in human PC-3 cells assessed as accumulation of cells in G1/S phase by measuring upregulation of p27 measured after 48 hrs by Western blot assay; format: functional, cell-based; settings: dose 125-500 nM
[24] = system: DU-145; experiment: Induction of apoptosis in human DU-145 cells assessed as nuclear fragmentation at 0.5 to 2 uM measured after 72 hrs by Hoechst staining based fluorescence method; format: functional, cell-based; settings: dose 0.5-2 µM
[25] = system: DU-145; experiment: Antiproliferative activity against human DU-145 cells assessed as reduction in colony formation at 0.25 to 1 uM measured after 6 days by crystal violet staining based colony assay; format: functional, cell-based; settings: dose 0.25-1 µM, time 6.0 day
[26] = Toxicity in C57BL/6 mouse assessed as effect on heart at 2 mg/kg, IG measured after 2 weeks by hematoxylin and eosin staining based imaging analysis; format: organism-based; settings: in vivo, po, 336 h
[27] = Toxicity in C57BL/6 mouse assessed as effect on spleen at 2 mg/kg, IG measured after 2 weeks by hematoxylin and eosin staining based imaging analysis; format: organism-based; settings: in vivo, po, 336 h
[28] = system: PC-3; experiment: Induction of cell cycle arrest in human PC-3 cells assessed as accumulation of cells in G1/S phase at 500 nM measured after 48 hrs by propidium iodide staining based flowcytometry method (reference value: 19.23%); format: functional
[29] = system: PC-3; experiment: Induction of apoptosis in human PC-3 cells assessed as early apoptotic cells at 50 nM measured after 72 hrs by Annexin V-FITC/propidium iodide staining based flow cytometry method (Rvb 0.452 %); format: functional
[30] = system: DU-145; experiment: Induction of apoptosis in human DU-145 cells assessed as viable cells at 2 uM measured after 72 hrs by Annexin V-FITC/propidium iodide staining based flow cytometry method (reference value: 96.3 %); format: functional; settings: read-out: Activity
[31] = system: PC-3; experiment: Induction of apoptosis in human PC-3 cells assessed as increase in Bax expression at 25 to 100 nM measured by Western blot assay; format: functional, cell-based; settings: dose 25-100 nM
[32] = system: PC-3; experiment: Induction of cell cycle arrest in human PC-3 cells assessed as accumulation of cells in G1/S phase at 250 nM measured after 48 hrs by propidium iodide staining based flowcytometry method (reference value: 19.23%); format: functional
[33] = system: PC-3; experiment: Induction of apoptosis in human PC-3 cells assessed as viable cells at 100 nM measured after 72 hrs by Annexin V-FITC/propidium iodide staining based flow cytometry method (reference value: 97.2 %); format: functional; settings: read-out: Activity

Cc1ccc(/C=N/NC(=S)Nc2ccc(C(=O)NCCc3c(C)[nH]c4ccccc34)cc2)nc1
Activity [1]: 38.5%
Activity [2]: Active
Activity [3]: Active
Activity [4]: 87%
Activity [5]: 1.95%
IC50 [6]: 19.5 µM
Activity [7]: Active
Activity [8]: inactive
Activity [9]: 9.14%
Activity [10]: Non-Toxic
Activity [11]: Active
Activity [12]: Active
Activity [13]: Active
Activity [14]: 33.5%
Activity [15]: Active
Activity [16]: 5.76%
Activity [17]: Non-Toxic
Activity [18]: 22.5%
Activity [19]: 98.9%
Activity [20]: 60.1%
Activity [21]: Active
Activity [22]: 10.5%
Activity [23]: Active
Activity [24]: Active
inhibition [25]: Active
Activity [26]: Non-Toxic
Activity [27]: Non-Toxic
Activity [28]: 49.02%
Activity [29]: 5.6%
viability at 2 µM [30]: 43.8%
Activity [31]: Active
Activity [32]: 29.04%
viability at 0.1 µM [33]: 35.9%
